Assay results: US4833144A, “2-Alkylsulfinyl-4(3H)-quinazolinone derivatives and pharmaceutical compositions” (Nisshin Flour Milling Co., Ltd., priority 1987, dated 1989)
Like-named read-outs stand apart in the source and are kept apart here.

Assays:
[1] = tested on: indomethacin induced ulcer; test: antiulcer activity: suppression of indomethacin induced ulcer in mice; format: in vivo, ddY series male mice; conditions: po, read-out: Suppression rate of indomethacin induced ulcer, 100 mg/kg, p.o.
Experimental: The antiulcer activity of the compounds of this invention was determined by the following method. Four-week-old ddY series male mice were used as the test animals after they were fasted for 24 hours. Each test compound suspended in a 1% gum arabic solution was administerd to the stomach of each mouse at a dose of 100 mg/kg, and then, after 30 minutes, 20 mg/kg of indomethacin was administered orally. Four hours after the administration of indomethacin, the stomach of mouse was extirpated and the length of ulcers was measured. Then, the ulcer index was determined by the total sum of the scores as calculated in Table 1.

[2] = acute oral toxicity (LD50); conditions: in vivo
[3] = mouse, 100 mg/kg p.o. 30 min before 20 mg/kg indomethacin, ulcer index 4 h later, vs control group

Row | SMILES | inhibition in vivo at 100 mg/kg [1, 3] | inhibition in vivo at 100 mg/kg ([1]; Mus musculus, 4 h) | LD50 [2]
1 | O=c1c2ccccc2nc([S+]([O-])Cc2ccccn2)n1-c1ccccc1Cl (stereo not drawn) [3-(2-chlorophenyl)-2-(2-pyridylmethylsulfinyl)-4(3H)-quinazolinone] | 56% |  | 
2 | CC(C)Cn1c([S+]([O-])Cc2ccccn2)nc2ccccc2c1=O (stereo not drawn) [3-isobutyl-2-(2-pyridylmethylsulfinyl)-4(3H)-quinazolinone] | 40% |  | 
3 | O=c1c2ccccc2nc([S+]([O-])Cc2cccnc2)n1-c1ccccc1 (stereo not drawn) [3-phenyl-2-(3-pyridylmethylsulfinyl)-4(3H)-quinazolinone] | 55% |  | 
4 | O=c1c2ccccc2nc([S+]([O-])Cc2ccncc2)n1-c1ccccc1 (stereo not drawn) [3-Phenyl-2-(4-pyridylmethylsulfinyl)-4(3H)-quinazolinone] | 69% |  | 
5 | Cc1cccc2nc([S+]([O-])Cc3ccccn3)n(-c3ccccc3)c(=O)c12 (stereo not drawn) [5-methyl-3-phenyl-2-(2-pyridylmethylsulfinyl)-4(3H)-quinazolinone] | 77% |  | 
6 | COc1ccc(-n2c([S+]([O-])Cc3nccc(OC)c3C)nc3ccc(C)cc3c2=O)cc1 (stereo not drawn) [2-[(4-methoxy-3-methylpyridin-2-yl)methylsulfinyl]-3-(4-methoxyphenyl)-6-methyl-4(3H)-quinazolinone] | 51% |  | 
7 | O=c1c2ccccc2nc([S+]([O-])Cc2ccnc3ccccc23)n1-c1ccccc1 (stereo not drawn) [3-phenyl-2-(4-quinolylmethylsulfinyl)-4(3H)-quinazolinone] | 64% |  | 
8 | CN/C(=N/CCSCc1nc[nH]c1C)NC#N [Cimetidine, reference compound] |  | 40% | 
9 | O=c1c2ccccc2nc([S+]([O-])Cc2ccccn2)n1-c1ccccc1 (stereo not drawn) [3-Phenyl-2-(2-pyridylmethylsulfinyl)-4(3H)-quinazolinone] | 83% |  | > 3000 mg/kg
10 | COc1cc(C[S+]([O-])c2nc3ccccc3c(=O)n2-c2ccccc2)ncc1C (stereo not drawn) [2-[(4-methoxy-5-methylpyridin-2-yl)methylsulfinyl]-3-phenyl-4(3H)-quinazolinone] | 82% |  | 
11 | COc1ccc(-n2c([S+]([O-])Cc3ccccn3)nc3ccccc3c2=O)cc1 (stereo not drawn) [3-(4-methoxyphenyl)-2-(2-pyridylmethylsulfinyl)-4(3H)-quinazolinone] | 72% |  | 
12 | Cc1ccc2nc([S+]([O-])Cc3ccccn3)n(-c3ccccc3)c(=O)c2c1 (stereo not drawn) [6-methyl-3-phenyl-2-(2-pyridylmethylsulfinyl)-4(3H)-quinazolinone] | 56% |  | 
13 | COc1cccc(-n2c([S+]([O-])Cc3ccccn3)nc3ccccc3c2=O)c1 (stereo not drawn) [3-(3-methoxyphenyl)-2-(2-pyridylmethylsulfinyl)-4(3H)-quinazolinone] | 73% |  | 
14 | Cc1ccnc(C[S+]([O-])c2nc3ccccc3c(=O)n2-c2ccccc2)c1 (stereo not drawn) [2-[(4-methylpyridin-2-yl)methylsulfinyl]-3-phenyl-4(3H)-quinazolinone] | 68% |  | 
15 | COc1cc(C[S+]([O-])c2nc3ccc(C)cc3c(=O)n2-c2ccccc2)ncc1C (stereo not drawn) [2-[(4-methoxy-5-methylpyridine-2-yl)methylsulfinyl]-6-methyl-3-phenyl-4(3H)-quinazolinone] | 59% |  | 
16 | Cc1ccc(-n2c([S+]([O-])Cc3ccccn3)nc3ccccc3c2=O)cc1 (stereo not drawn) [3-(4-methylphenyl)-2-(2-pyridylmethylsulfinyl)-4(3H)-quinazolinone] | 73% |  | 
17 | O=c1c2ccccc2nc([S+]([O-])Cc2ccccn2)n1-c1cccc2ccccc12 (stereo not drawn) [3-(1-naphthyl)-2-(2-pyridylmethylsulfinyl)-4(3H)-quinazolinone] | 39% |  | 
